Experimental data from a melting point compilation (Tetko et al.; mined from patent text by program, amines drawn as free bases though some values may be those of a salt).

SMILES	melting point
OCCN1CC=C(c2c[nH]c3ccccc23)CC1	164 to 165 °C
Cc1cc(Cl)nnc1-c1cccc(C#N)c1	153 to 155 °C
CC(=O)Nc1nc(N)nc(NC2CC2)n1	190 to 195 °C
Fc1cc(Cl)ccc1-n1nc2c(c1Cl)CSCC2	97 to 99 °C
O=C(O)CCCc1cc2cc(C(F)(F)F)ccc2n1S(=O)(=O)c1ccc2c(c1)CCN2	175 °C
CC(C)n1c(=O)n(CC#N)c2cc(-c3ncc(C(F)(F)F)cc3Cl)ccc21	158 to 159 °C
COc1cc2c(cc1OC)C(c1ccc([N+](=O)[O-])cc1)NN(C1=NC(=O)C(C)S1)C(C)C2 (centres undefined)	213 to 214 °C
Cc1noc(-c2ccc(I)cc2)n1	136 to 137 °C
CC(C)(C)OC(=O)NNCc1cccc(C#N)c1	75 to 80 °C
O=C1CSCCN1c1ccc(C(F)(F)F)cc1	79 to 80 °C
CCCCCCCCCCCCCCCOC(=O)c1cccnc1	35 °C
CCOC(=O)c1cc(OCCOC)c(OCCOC)cc1[N+](=O)[O-]	50 to 51 °C
CCC(CC)C(=O)OCOC(=O)C1=C(S[C@H]2CC[S@@](=O)C2)S[C@@H]2[C@@H]([C@@H](C)O)C(=O)N12	105 °C
Cc1c(CCc2ccc3nc(N)oc3c2)nc2cc(CCl)ccn12	> 300 °C
CNc1nnc(C(C)(C)C)s1	79 to 81 °C
CC(C)Oc1ccc2c(n1)C(C(=O)c1cccs1)C(=O)N2C(N)=O (centres undefined)	194 to 196 °C
CON=C(C(=O)O)C1(CCl)OCCO1	80 to 81 °C
Cc1cc(C)c(NC(=O)CN2CCN(CCSc3nc4ccccc4o3)CC2)c(C)n1	159 to 160 °C
OCc1cn(-c2ccc(SC(F)(F)F)c(Cl)c2)cn1	105 to 106 °C
COC(=O)c1cc(-c2ccc(OC)c(OC)c2)nn(CC(C)C)c1=O	104 to 106 °C
Nc1nc(-c2cccc(F)c2)nc2nc(-c3ccco3)nn12	> 300 °C
CCOC(=O)C(=O)N1CCCc2c1ccc1[nH]c(=O)c(=O)[nH]c21	> 285 °C
Cc1cccc2c(=O)cc(C3CCCC3)oc12	51 to 52 °C
C=CCc1cc(OC)c(OC)cc1CC(C#N)=COC	77 to 79 °C
CC(C)(Cl)C(COCc1ccc([N+](=O)[O-])o1)N=O (centres undefined)	134 to 135 °C
Fc1cc(F)c(-c2c(F)nc3nncnc3c2F)c(F)c1	160 to 161 °C
CCCc1c(OCCCCOCCCCOc2c(C(C)=O)ccc(OCC(=O)O)c2CCC)ccc(C(C)=O)c1O	68 to 71 °C
N#Cc1cccc2c1CCC2=O	122 °C

Second part, the molecule after the results:

melting point	SMILES
250 to 252 °C	CS(=O)c1ccc(-c2nc(-c3ccc(F)cc3)c(-c3ccncc3)[nH]2)cc1 (centres undefined)
215 to 217 °C	C=CCc1c2n(c3ccccc13)C(=O)C(Cc1nc[nH]c1C)CC2 (centres undefined)
253 to 254 °C	COc1cc(C(=O)NS(=O)(=O)c2ccccc2C)ccc1Cc1cn(C(=O)NC(c2ccccc2)c2ccccc2)c2ccc(NC(=O)OC3CCCC3)cc12
121 to 123 °C	N#CCN1CCN(c2n[nH]c3ccccc23)CC1
169 to 171 °C	COc1cccc2oc(-c3ccc(C)cc3)cc(=O)c12
90 to 96 °C	CCCCn1c(=O)c(C(=O)OCC)c(N2CCN(C(=O)c3cccs3)CC2)c2cccnc21
223 °C	c1ccc2sc3cc4oc5ccccc5sc4cc3oc2c1
135 to 136 °C	COc1cc2c(c3c1OC(C)(C)C3)C(Nc1ccccc1)=NC(C)(C)C2
127 °C	Cc1cc(C(CC2CCCC2)c2ccc(S(C)(=O)=O)cc2)[nH]c1C(=O)O (centres undefined)
195 °C	CCOC(=O)c1c(N2CCN(C(=O)c3cccs3)CC2)c2c(C)csc2n(Cc2ccccc2)c1=O
160 °C	CC(=O)N1CCC(COC2c3ccccc3C(=O)N2c2ccc3ccc(Cl)nc3n2)CC1 (centres undefined)
159 to 160 °C	COc1ccc2cc3c(N)nn(-c4ccccc4)c3nc2c1
80 to 82 °C	O=C(NCC(c1ccccc1)c1ccccc1)C1Cc2ccccc2N1S(=O)(=O)c1ccc(-c2ccc(F)cc2)cc1 (centres undefined)
212 to 213 °C	O=C(N[C@@H](Cc1ccc(C(F)(F)F)cc1)[C@H](O)c1ccc(F)cc1)c1ccc(C(F)F)c2ccccc12
141 °C	CSc1ccc(C(O)(c2ccc(Cl)cc2)C2CCN(CCO)C2=O)cc1 (centres undefined)
180 to 181 °C	COc1cc(C)nc(NC(=O)NS(=O)(=O)c2csc3ccccc23)n1
151 to 152 °C	O=S(=O)(Nc1ccccc1Oc1ccc2ncccc2c1)c1ccc(Cl)cc1
162 to 165 °C	CCOC(=O)C=Cc1ccc(Cl)cc1N(CC(=O)c1ccc(Cl)cc1)S(=O)(=O)c1ccc(C)cc1
113 to 115 °C	O=C(c1cncc(Br)c1)N1CCC(c2ccccc2)=N1
154 to 157 °C	Cc1ccc(S(=O)(=O)N(CC(=O)N(C)C)c2ccc(Cl)cc2C(=O)c2ccccc2Cl)cc1
205 to 208 °C	COc1ccccc1NC(C)C(=O)O (centres undefined)

melting point	SMILES
95.5 to 97 °C	CCCOc1ccccc1-c1nc(OCC)cc(=O)[nH]1
145 to 147 °C	Cc1nc(-c2ccccc2)nc(-c2cccc([N+](=O)[O-])c2)c1CN
119 to 122 °C	CN1Cc2cccc(SCc3ccccc3)c2S1(=O)=O
242 to 245 °C	CC(C)CN1c2ccccc2C(C)(C)C12C=Nc1cc(-c3ccc(N4CCCC4)cc3)c3ccccc3c1O2 (centres undefined)
135 to 136 °C	COC(=O)c1cnc(OCc2ccccn2)nc1NCc1ccc(OC)c(Cl)c1
80 to 81 °C	COC(=O)C[C@H](O)C[C@H](O)CCc1c(-c2ccc(F)cc2)c(-c2ccccc2)c(C(=O)Nc2cccc(S(N)(=O)=O)c2)n1C(C)C
299 to 300 °C	CS(=O)c1ccc(-n2cnc3ccc(-c4nnc(S)o4)cc32)cc1 (centres undefined)
175 to 176 °C	CCOC(=O)C(Cc1c[nH]c2cc(Cl)cc(Cl)c12)=NO
137 to 138 °C	COc1cc2c(cc1O)CCN(Cc1ccccn1)C2
92 to 93 °C	CCOC(=O)/C=C/c1ccc(OC(C)C)nc1Oc1ccc(Cl)cc1Cl
177 to 179 °C	O=C(NC1CCN(CCCCc2cc(F)cc3c2-c2ccc(F)cc2C3C(=O)NCC(F)(F)F)CC1)c1ccccc1 (centres undefined)
78 to 83 °C	CCc1oc2ccccc2c1C(=O)c1ccc(OCCO)cc1
80 to 81 °C	COC(=O)C(Cl)=Cc1cc(-n2ncc(C(F)(F)F)c(C)c2=O)ccc1Cl
228 to 231 °C	COc1ccc(C(=O)Nc2ccccc2)cc1N(S(=O)(=O)c1cc(Cl)cc(Cl)c1)S(=O)(=O)c1cc(Cl)cc(Cl)c1
143 to 144 °C	COC(=O)c1ccccc1S(=O)(=O)NC(=Nc1nc(C)cc(OC)n1)SC
143 to 144 °C	COc1cc2cc(-c3ccccc3F)sc2c(Cl)c1Cl
249 to 251 °C	COc1c(C(=O)NN=Cc2ccc(Cl)cc2)[nH]c2ccccc12
108 to 109 °C	CCOc1nn(-c2ccc(C(F)(F)F)cc2)cc1CCCOc1cccc(CC(=O)O)c1
102 °C	Cc1cccc(S(=O)(=O)N2CCCC2c2ccc(F)cc2)c1 (racemic)
187 to 188 °C	CCOC(=O)C1=C(C)NC2=C(C(=O)N(CCN(CC)CC)C2)C1c1ccccc1[N+](=O)[O-] (centres undefined)
